From US20040038369A1, “Airway-specific trypsin-like enzymes and method of using the same” (priority 2000, published 2004)

Tested on: IL-8 promoter
Test: IL-8 promoter luciferase reporter assay in BEAS-2B
Type: cell-based, human
Conditions: HAST 300 mU/mL, 3 hours
Procedure: About 1.5 Kb and 162 bp of the promoter domains (Mukaida N. et al., J. Immunol., 143: 1366-1371, 1989) of IL-8 were cloned with LA-PCR (produced by Takara Shuzo Co.) using human genome DNA as a template, a forward primer: IL8-1481; […], a forward primer: IL8-162; […], a reverse primer: IL8LUC-R; […]. The PCR was carried out at 98° C. for 20 sec, at 58° C. for one minute and at 68° C. for 5 minutes in 25 cycles. The obtained DNA fragments of the promoter domains of about 1.5 Kb and about 0.25 Kb were named IL8-1481 and IL8-162, respectively.
A DNA fragment containing from ATG (translation-starting codon) to NarI site in the luciferase gene of pGL3-Basic (produced by Promega Corp.) was amplified by a PCR method using a forward primer: IL8LUC-F; […] and a reverse primer: LUC2087R; […]. This luciferase gene N-terminal DNA fragment was ligated to the IL8-1481 and the IL8-162 by a PCR method to obtain the PCR fragments IL8-1481-Luc (about 2 Kb) and IL8-162-Luc (about 800 bp). […]
The luciferase activity was assayed with Pica Gene Dual•Renilla reniformis (produced by Toyo Ink Co.,). […] First, 100 μL of Pica Gene luminescent reagent II was added, and the luminescence due to the firefly luciferase was assayed with a luminometer (LUMINOUS CT-9000D (produced by DIA-IATRON Corp.)). […]

“HAST: human airway-specific trypsin-like enzyme; propeptide moiety bound to trypsin-like protein moiety via a disulfide bond” was tested, and the “production of the IL-8 at a transcription level (reporter activity)” value was “promoted”.
